Where two headings read alike, the source gives them in different places.
Assays:
[1] = system: cancer-associated phosphoprotein; settings: for induction of the cancer-associated phosphoprotein in the plasma: rat plasma, result in words
[2] = system: cancer-associated phosphoprotein; experiment: ELISA assay of purified 60K plasma protein fraction from rats exposed to test compound; format: in vivo, rat (Sprague-Dawley strain)
Procedure: This example illustrates a process of the present invention in which the assay for the cancer-associated phosphoprotein is effected by means of an ELISA test.
Samples of the purified 60K protein fraction from the Sepharose CL-6B column used in Example 1 above were subjected to an ELISA assay. […] Also subjected to the same ELISA assay were purified protein fractions from the control rats and from a rat suffering from a hepatoma 7777 tumor.
The ELISA assay was conducted in the following manner. A sample of the cancer-associated phosphoprotein prepared in the manner described in Example 1 of the aforementioned parent application Ser. No. 554,439 was bound to a well in a plastic tray, and the well thereafter washed thoroughly. A polyclonal rabbit antibody serum prepared as described in Example 2 of the aforementioned parent application Ser. No. 554,439 was then mixed with the protein sample to be assayed and the resultant mixture incubated at 37° C. for 30 minutes. The mixture was then added to the well containing the cancer-associated phosphoprotein, and the tray incubated for one hour at 37° C., then washed thoroughly. Following this washing, there was added to the well a goat anti-rabbit IgG antibody serum conjugated to horseradish peroxidase enzyme, and the tray was incubated for one hour at 37° C. then washed thoroughly. The substrate for the horseradish peroxidase enzyme, namely 2,2-azino-di(3-ethylbenzthiazoline sulfonic acid) was added to the well and the tray incubated to 15 minutes at room temperature. The color development was then stopped by addition of a 2 mM solution of sodium azide and the intensity of the color in the wells determined using a spectrophotometer at […].
To determine the maximum possible optical density, a control test was run in which the test sample was replaced with a buffer containing no cancer-associated phosphoprotein; this optical density represents the maximum possible reaction of uninhibited antibody binding to the bound cancer-associated phosphoprotein. […] The optical density of a well containing as a control sample an equivalent fraction of normal rat plasma free of cancer-associated phosphoprotein is designated 0% inhibition; the optical density of this control sample should be close to that of the sample using the buffer solution The samples tested for the presence of the cancer-associated phosphoprotein are designated positive when the optical density exceeds that of the control value by two standard deviations. The concentration of cancer-associated phosphoprotein is directly related to the percentage inhibition and can be compared to that of the standard solution of the cancer-associated phosphoprotein.

rat = settings: cited from earlier work
[3] = system: cancer-associated phosphoprotein; format: in vivo, rat; settings: acute or chronic treatment of rats
Source text: Further experiments indicate that release of the cancer-associated phosphoprotein into the plasma was not induced upon induction of liver regeneration in the rat by partial hepatectomy, nor by acute or chronic treatment of the rats with the non-carcinogenic tumor promoter phenobarbital.

transformed cells = settings: some types of transformed cells; cited from earlier work
[4] = 1 millimole/kg, intraperitoneal, plasma ~21 days after exposure, control subtracted
[5] = 160 micromoles/kg, intraperitoneal, plasma ~21 days after exposure, control subtracted
[6] = ELISA inhibition, plasma fraction of treated rat, standard phosphoprotein solution = 100%, normal rat plasma fraction = 0%
[7] = 600 micromoles/kg, intraperitoneal, plasma ~21 days after exposure, control subtracted
[8] = 210 micromoles/kg, intraperitoneal, plasma ~21 days after exposure, control subtracted
[9] = 200 micromoles/kg, intraperitoneal, plasma ~21 days after exposure, control subtracted

Compound: CCN(CC)N=O [N--Nitroso-N,N--diethylamine]
- RNA-releasing Activity [1, 4]: 4.21 percent nuclear counts per min

Compound: Cc1ccc2cc3c(ccc4ccccc43)c3c2c1CC3 [3-Methylcholanthrene]
- RNA-releasing Activity [1, 5]: 5.62 percent nuclear counts per min

Compound: Cc1c(F)ccc2ccc3cc4ccccc4c(C)c3c12 [2-Fluoro-1,12-dimethylbenz[a]anthracene]
- RNA-releasing Activity [1, 5]: 0.10 percent nuclear counts per min

Compound: O=[N+]([O-])c1ccc2ccc3cccc4ccc1c2c34 [1-Nitropyrene]
- RNA-releasing Activity ([1]; 105 micromoles/kg, intraperitoneal, plasma ~21 days after exposure, control subtracted): 5.30 percent nuclear counts per min
- Percentage Inhibition [2, 6]: 74%

Compound: Cc1c2ccccc2c(C)c2c1ccc1ccccc12 [7,12-Dimethylbenz[a]anthracene]
- RNA-releasing Activity [1, 5]: 6.42 percent nuclear counts per min

Compound: C=CCc1ccc2c(c1)OCO2 [Safrole]
- RNA-releasing Activity [1, 7]: 5.90 percent nuclear counts per min
- Percentage Inhibition [2, 6]: 80%

Compound: CNNC [1,2-dimethylhydrazine]
- RNA-releasing Activity ([1]; 560 micromoles/kg, intraperitoneal, plasma ~21 days after exposure, control subtracted): 5.71 percent nuclear counts per min
- Percentage Inhibition [2, 6]: 79%

Compound: ClC(Cl)(Cl)Cl [Carbon tetrachloride, carbon tetrachloride]
- Percentage Inhibition ([2]; ELISA inhibition, plasma fraction of treated rat, standard phosphoprotein solution = 100%, normal rat plasma fraction = 0%, listed as Carbon tetrachloride-1): 1%
- Percentage Inhibition ([2]; ELISA inhibition, plasma fraction of treated rat, standard phosphoprotein solution = 100%, normal rat plasma fraction = 0%, listed as Carbon tetrachloride-2): 10%

Compound: CCN(N=O)C(N)=O [N--Ethyl-N--nitrosourea]
- RNA-releasing Activity [1, 7]: 4.50 percent nuclear counts per min

Compound: CN(N=O)C(N)=O [N--Methyl-N--nitrosourea]
- RNA-releasing Activity ([1]; 440 micromoles/kg, intraperitoneal, plasma ~21 days after exposure, control subtracted): 4.69 percent nuclear counts per min

Compound: Cn1c(=O)c2c(ncn2C)n(C)c1=O [Caffeine]
- RNA-releasing Activity ([1]; rat, in vivo, ip): 0.07
- Percentage Inhibition ([2]; rat, in vivo): 14

Compound: c1ccc2c(c1)cc1ccc3cccc4ccc2c1c34 [Benzo[a]pyrene]
- RNA-releasing Activity [1, 8]: 7.73 percent nuclear counts per min

Compound: COc1cc2c(c3oc(=O)c4c(c13)CCOC4=O)[C@@H]1CCO[C@@H]1O2 [Aflatoxin G2]
- RNA-releasing Activity ([1]; rat, in vivo, ip): 3.80

Compound: c1ccc2c(c1)Cc1ccccc1-2 [Fluorene]
- RNA-releasing Activity [1, 5]: 0.14 percent nuclear counts per min

Compound: CN(C)N=O [N--Nitroso-N,N--dimethylamine]
- RNA-releasing Activity ([1]; 135 micromoles/kg, intraperitoneal, plasma ~21 days after exposure, control subtracted): 3.40 percent nuclear counts per min

Compound: c1ccc2cc3ccccc3cc2c1 [Anthracene]
- RNA-releasing Activity [1, 5]: 0.17 percent nuclear counts per min

Compound: c1ccc2nc3ccccc3cc2c1 [Acridine]
- RNA-releasing Activity ([1]; 15 micromoles/kg, intraperitoneal, plasma ~21 days after exposure, control subtracted): 0.00 percent nuclear counts per min
- Percentage Inhibition [2, 6]: 2%

Compound: O=C(O)C(F)(F)C(F)(F)C(F)(F)C(F)(F)C(F)(F)C(F)(F)C(F)(F)C(F)(F)C(F)(F)F [Nonadecafluorodecanoic acid]
- RNA-releasing Activity ([1]; 50 micromoles/kg, intraperitoneal, plasma ~21 days after exposure, control subtracted): 0.00 percent nuclear counts per min
- induction of the cancer-associated phosphoprotein in the plasma [1]: do not induce significant quantities of the cancer-associated phosphoprotein
- toxicity in the rat (rat): very potent toxins in the rat

Compound: COc1cc2c(c3oc(=O)c4c(c13)CCC4=O)[C@@H]1C=CO[C@@H]1O2 [Aflatoxin B1]
- RNA-releasing Activity ([1]; rat, in vivo): 4.37

Compound: CCC1(c2ccccc2)C(=O)NC(=O)NC1=O [Phenobarbital]
- release of the cancer-associated phosphoprotein into the plasma [3]: not induced
- RNA-releasing Activity ([1]; 80 micromoles/kg, intraperitoneal, plasma ~21 days after exposure, control subtracted): 0.08 percent nuclear counts per min

Compound: CCOC(N)=O [Ethyl carbamate (urethane), Ethyl carbamate]
- RNA-releasing Activity ([1]; 11.2 millimoles/kg, intraperitoneal, plasma ~21 days after exposure, control subtracted): 3.80 percent nuclear counts per min

Compound: Cc1cc2nc3c(=O)[nH]c(=O)nc-3n(C[C@H](O)[C@H](O)[C@H](O)CO)c2cc1C [Riboflavin]
- RNA-releasing Activity ([1]; 265 micromoles/kg, intraperitoneal, plasma ~21 days after exposure, control subtracted): 0.01 percent nuclear counts per min
- Percentage Inhibition [2, 6]: 11%

Compound: CCCCN(CCCC)N=O [N--Nitroso-N,N--dibutylamine]
- RNA-releasing Activity ([1]; 760 micromoles/kg, intraperitoneal, plasma ~21 days after exposure, control subtracted): 5.44 percent nuclear counts per min
- Percentage Inhibition [2, 6]: 75%

Compound: Clc1cc2c(cc1Cl)Oc1cc(Cl)c(Cl)cc1O2 [2,3,7,8-Tetrachlorodibenzo-p-dioxine]
- RNA-releasing Activity ([1]; 0.125 micromoles/kg, intraperitoneal, plasma ~21 days after exposure, control subtracted): 0.00 percent nuclear counts per min
- induction of the cancer-associated phosphoprotein in the plasma [1]: do not induce significant quantities of the cancer-associated phosphoprotein
- toxicity in the rat (rat): very potent toxins in the rat

Compound: CC(=O)Nc1ccc2c(c1)Cc1ccccc1-2 [2-Acetylaminofluorene]
- RNA-releasing Activity [1, 9]: 5.11 percent nuclear counts per min
- Percentage Inhibition [2, 6]: 87%

Compound: c1cc2ccc3cccc4ccc(c1)c2c34 [Pyrene]
- RNA-releasing Activity [1, 5]: 0.05 percent nuclear counts per min

Compound: c1ccc2ccccc2c1 [Naphthalene]
- RNA-releasing Activity [1, 4]: 0.12 percent nuclear counts per min
- Percentage Inhibition [2, 6]: 18%

Compound: c1ccc2cc3c(ccc4ccccc43)cc2c1 [Benz[a]anthracene]
- RNA-releasing Activity [1, 5]: 4.92 percent nuclear counts per min

Compound: CN(C)C=O [Dimethylformamide]
- RNA-releasing Activity [1, 9]: 1.30 percent nuclear counts per min
- induction of the cancer-associated phosphoprotein in the plasma [1]: induced significant quantities
- ability to induce differentiation of transformed cells (transformed cells): reversably induce the differentiation of some types of transformed cells

Compound: Nc1ccc2ccccc2c1 [2-Naphthylamine]
- RNA-releasing Activity ([1]; 500 micromoles/kg, intraperitoneal, plasma ~21 days after exposure, control subtracted): 3.29 percent nuclear counts per min

Compound: c1ccc2c(c1)c1cccc3ccc4cccc2c4c31 [Benzo[e]pyrene]
- RNA-releasing Activity [1, 8]: 3.37 percent nuclear counts per min

Source: patent US4871661A, “Process for testing the carcinogenicity of a material or the presence of cancer-inducing factors in an environment” (priority 1985, dated 1989)
